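Protocol summary: plate cells (96-well), add compound at 5 concentrations, incubate 48 h, interpolate endpoints linearly. At the TGI there is no net growth.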
Experiments:
Test in all cases: NCI tumour cell line growth inhibition, 48 h
[1] = system: SF-268 CNS
[2] = system: NCI-H522 lung
[3] = system: MOLT-4 leukemia
[4] = system: HCT-116 colon
[5] = system: NCI-H226 lung
[6] = system: BT-549 breast
[7] = system: K-562 leukemia
[8] = system: MDA-N
[9] = system: IGROV1 ovarian
[10] = system: SK-OV-3 ovarian
[11] = system: RPMI-8226 leukemia
[12] = system: OVCAR-5 ovarian
[13] = system: SNB-19 CNS
[14] = system: NCI-H460 lung
[15] = system: SN12C renal
[16] = system: SNB-75 CNS
[17] = system: MALME-3M melanoma
[18] = system: EKVX NSCLC
[19] = system: KM12 colon
[20] = system: SF-295 CNS
[21] = system: OVCAR-3 ovarian
[22] = system: SK-MEL-5 melanoma
[23] = system: SW-620 colon
[24] = system: HCT-15 colon
[25] = system: UACC-257 melanoma
[26] = system: RXF 393 renal
[27] = system: SK-MEL-28 melanoma
[28] = system: HOP-92 NSCLC
[29] = system: MDA-MB-435
[30] = system: NCI-H23 lung
[31] = system: A498 renal
[32] = system: SK-MEL-2 melanoma
[33] = system: A549 NSCLC
[34] = system: T-47D breast
[35] = system: UO-31 renal
[36] = system: CAKI-1 renal
[37] = system: NCI/ADR-RES ovarian
[38] = system: PC-3 prostate
[39] = system: COLO 205 colon
[40] = system: M14 melanoma
[41] = system: LOX IMVI melanoma
[42] = system: SF-539 CNS
[43] = system: ACHN renal
[44] = system: OVCAR-4 ovarian
[45] = system: 786-0 renal
[46] = system: HOP-62 NSCLC
[47] = system: MDA-MB-231 breast

Measured: TGI

O=CCC1CCCCC1
> 100 µM: all assays above
